Results reported in patent US10940139B2, “Compounds that interact with the Ras superfamily for the treatment of cancers, inflammatory diseases, rasopathies, and fibrotic disease” (Shy Therapeutics LLC, priority 2017, dated 2021).

target: KRas G12D/Q61H double mutant (Homo sapiens (Human), UniProt P01116, G12D/Q61H); test: Ras GTP binding domain inhibition assay (labeled GTP); conditions: 20 μM compound; KRas G12D/Q61H double mutant; read-out: % Inhibition at 20 μM of K-Ras mutant and wild-type protein, KRas G12D Q61H
Sequence (P01116-2 other isoform, or with tags, fused parts or gaps G12D/Q61H): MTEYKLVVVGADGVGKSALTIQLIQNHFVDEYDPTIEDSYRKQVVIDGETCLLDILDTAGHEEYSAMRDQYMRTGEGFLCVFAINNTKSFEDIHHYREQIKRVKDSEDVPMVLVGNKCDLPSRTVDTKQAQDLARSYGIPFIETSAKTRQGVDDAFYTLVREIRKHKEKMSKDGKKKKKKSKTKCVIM
Procedure: Buffer-I: • 50 mM Tris, pH 7.5 • 150 mM NaCl (optional) • 1 mM MgCl2 • 1 mM DTT. • KRas G12D mutant protein was expressed as a His-tagged protein. Purified His-KRas G12D protein was diluted in buffer-I to a final concentration of 3-10 μg/ml. • 200 μl of the diluted His-KRas G12D protein was added to a nickel coated 96 well plate and incubated overnight at 4° C. • The next day, wells were washed 3× in 200 μl of Buffer-I. • Then 200 μl of Buffer-I were added to each well in the presence of 1% DMSO. • Tested compounds were added to the protein-coated wells at a concentration of 20 μM, and incubated for 3 hours at room temperature. While performing IC50 measurements a serial dilution of all tested concentrations was prepared.
Then 22 μl of Cy3-GTP or Cy5-GTP was added to each well. The labeled GTP was incubated for 45 min. at room temperature. • Following GTP incubation, wells were washed 3× in Buffer-I, and 200 μl of Buffer-I were added to each well. • Following washes, the amount of bound labeled-GTP was measured with an Eppendorf AF2200 plate reader.
By substituting KRas G12D mutant protein with KRas G12C mutant, KRas wild type, KRas Q61H mutant, KRas G12D/Q61H double mutant or KRas G12C/Q61H double mutant under the assay conditions described above, KRas G12C mutant KRas wild type, KRas Q61H mutant, KRas G12D/Q61H double mutant and KRas G12C/Q61H double mutant inhibition, respectively, were each determined.

Row | SMILES | inhibition at 20 µM [%]
1 | CC(C)c1ccc(-c2nc(C(=O)NC(C)c3ccccn3)cs2)cc1 (centres unmarked) | 25 to 50
2 | COC(=O)c1c(NC(=O)Cc2cc(OC)c(OC)c(OC)c2)sc2c1CCCCC2 | 25 to 50
3 | CCOc1cc(CN(C(=O)CCc2nc(-c3ccsc3)no2)C2CC2)ccc1OC(F)(F)F | 25 to 50
4 | Cc1nn(Cc2ccccc2Cl)c(C)c1CN(C)S(=O)(=O)c1cccs1 | 1 to 25
5 | COc1ccc(CCNC(=O)COC(=O)c2c(NC(=O)C(C)(C)C)sc(C)c2C)cc1 | 25 to 50
6 | COc1ccccc1CN(Cc1coc(-c2ccc(F)cc2)n1)Cc1cccs1 | 1 to 25
7 | O=C(NN(Cc1ccccc1)Cc1ccccc1)c1n[nH]c(=O)c2ccccc12 | 25 to 50
8 | COCCCCC(=O)N(c1cc(C)ccc1F)C(C)c1ccc(C)cc1 (centres unmarked) | 1 to 25
9 | CC1CC1COC(=O)c1sccc1S(=O)(=O)N1CCSCC1 (centres unmarked) | 25 to 50
10 | FC(F)n1ccnc1CCNCc1csc(COc2ccccc2)n1 | 51 to 75
11 | Clc1ccccc1SCCCSc1nnc(N2CCCC2)s1 | 25 to 50
12 | CN(C)S(=O)(=O)c1ccc(CN2CCCCCC2/C=C/c2ccccc2)o1 (centres unmarked) | 25 to 50
13 | CN(C)S(=O)(=O)c1cccc(CSCCOc2cccc(Cl)c2)c1 | 25 to 50
14 | CCC(C)Oc1cc(-c2nc(C3CCCN3C(=O)OC(C)(C)C)no2)ccn1 (centres unmarked) | 25 to 50
15 | COCCCOC1(CSc2nnc(COc3cc(C)ccc3C)o2)CCCC1 | 25 to 50
16 | Cn1ccnc1C(NCCOc1ccc2cc(Br)ccc2c1)C1CC1 (centres unmarked) | 1 to 25
17 | Cc1occc1-c1nnc(SCC2CCN(C(=O)OCc3ccccc3)CC2)o1 | 25 to 50
18 | Cc1ccc(C)c(OCc2nnc(SCc3c(C#N)c(C)nn3-c3ccccc3)o2)c1 | 25 to 50
19 | CCOCCOc1ccc(Br)cc1CNCc1cccc(N2CC=CC2)c1 | 25 to 50

Row | SMILES | inhibition at 20 µM [%]
20 | COC(=O)C(C)CN(Cc1ccc(OCc2ccc([N+](=O)[O-])cc2)c(OC)c1)C1CC1 (centres unmarked) | 25 to 50
21 | O=C(c1ccoc1)N1CCC(Nc2cc(Cl)ccc2OCC2CCC2)CC1 | 25 to 50
22 | CCCN(CC1CC1)S(=O)(=O)Oc1ccc(N(C)S(=O)(=O)c2cccs2)cc1 | 25 to 50
23 | CCOc1ccc(-c2nc(CSc3nc4ccccc4n3CCOC)cs2)cc1OC | 25 to 50
24 | OC(CNC(Cc1ccccc1)c1nc(-c2ccccc2)no1)COCc1ccccc1Cl (centres unmarked) | 25 to 50
25 | COCCN(Cc1ccccc1)CC(O)COC(c1ccc(OC)cc1)c1ccc(OC)cc1 (centres unmarked) | 1 to 25
26 | CC(C)(C)c1noc(COc2ccc(C(=O)c3ccc(F)cc3)cc2)n1 | 25 to 50
27 | CCC(C)N(C(=O)CS(=O)(=O)c1nc(-c2ccccc2)cs1)C(C)CC (centres unmarked) | 25 to 50
28 | CC1CCCN(S(=O)(=O)c2ccc(NCc3ccc(C(=O)N(C)C(C)C)cc3)c([N+](=O)[O-])c2)C1 (centres unmarked) | 25 to 50
29 | NC(=O)C1CCCN1Cc1cccc(NC(=O)c2ccccc2OCCOc2ccccc2)c1 (centres unmarked) | 25 to 50
30 | CCOc1ccccc1CN(CCCn1ccnc1)C(=O)Nc1ccc(OC(F)F)c(Cl)c1 | 25 to 50
31 | Cc1sc2nc(-c3ccccn3)nc(NCC(=O)N3CCC(O)CC3)c2c1-c1ccccc1 | 25 to 50
32 | CN(C)S(=O)(=O)c1ccc(OCCn2c(=O)c(N3CCCCC3)c(N)n(C)c2=O)cc1 | 1 to 25
33 | O=C(COC1CCCCC1)Nc1nnc(-c2ccccn2)[nH]1 | 51 to 75
34 | O=C(COCC(F)(F)F)Nc1nnc(-c2ccccn2)[nH]1 | 25 to 50
35 | CCCOc1ccc2ccccc2c1CN(C)Cc1nnc(-c2ccccc2)o1 | 25 to 50
36 | COc1cccc(-c2nc(C(=O)N3CCC(c4ccccc4)CC3)c[nH]2)c1OC | 25 to 50
37 | COCCCN(C(=O)c1ccc(-n2nc(C)c(Cl)c2C)cc1)S(=O)(=O)c1ccc(OC)cc1 | 25 to 50
38 | CCCn1c(-c2cccc(C)c2)nnc1S(=O)(=O)Cc1csc(-c2cccc(OC)c2)n1 | 51 to 75

Row | SMILES | inhibition at 20 µM [%]
39 | O=C(CN(Cc1csc(COc2ccc(F)cc2)n1)Cc1ccco1)Nc1ccccc1 | 25 to 50
40 | COc1ccc(OC)c(CCC(=O)N2CCN(c3ncc(C(F)(F)F)cc3Cl)CC2)c1 | 25 to 50
41 | CCN1CCN(Cc2ccc(NC(=O)c3cc(OC)c(OC)cc3OC)cc2)CC1 | 1 to 25
42 | COCCn1c(SC(C)c2nc(-c3cccnc3)no2)nc2cc(Cl)ccc2c1=O (centres unmarked) | 25 to 50
43 | Cc1cc(C)c2c(N)c(C(=O)OCc3ccc(C(=O)N4CCCC4)cc3)sc2n1 | 1 to 25
44 | COc1ccc(COCC(CNC(=O)c2cc(C)cc(C)c2)OC(=O)c2cc(C)cc(C)c2)cc1 (centres unmarked) | 25 to 50
45 | O=c1[nH]c(NCC(O)c2ccccc2)nc2ccccc12 (centres unmarked) | 1 to 25
46 | COc1ccc(N(C(=O)c2ccc(COc3ccccc3)o2)C(C)C2CC2)cc1 (centres unmarked) | 25 to 50
47 | Cc1ccccc1OCCN(C)c1ccc([N+](=O)[O-])c(OC(F)F)c1 | 25 to 50
48 | COc1ccc2c(c1)C(N(Cc1ccccc1)Cc1nc(CC(C)C)no1)CCO2 (centres unmarked) | 25 to 50
49 | CCCCOCCN(C(=O)c1ccn(-c2ccccc2)n1)c1ccccc1Br | 25 to 50
50 | COc1ccc(CN(C)Cc2ccc(OC)c(SC(F)(F)F)c2)cc1F | 25 to 50
51 | OCCCCCSc1n[nH]c(-c2ccccn2)n1 | 51 to 75
52 | CC(O)(c1ccc(OCc2csc(Cc3ccccc3)n2)cc1)C(F)(F)F (centres unmarked) | 25 to 50
53 | Cc1ccccc1N(CC(=O)NCC1CCCCCC1)S(C)(=O)=O | 1 to 25
54 | O=C(Cc1ccccc1[N+](=O)[O-])N1CCCC1C1CCCC1 (centres unmarked) | 1 to 25
55 | Cc1ccc(S(=O)(=O)N2CCN(C(=O)CNC(=O)c3ncccc3O)CC2)s1 | 25 to 50
56 | CC1CCC(NS(=O)(=O)CC(=O)N2CCCC2Cc2ccccc2Cl)CC1 (centres unmarked) | 25 to 50

Continued, values first:

Row | inhibition at 20 µM [%] | SMILES
57 | 1 to 25 | Cc1ccc(OC(C)C(=O)Nc2ccccc2S(=O)(=O)NC(C)(C)C)c(Br)c1 (centres unmarked)
58 | 25 to 50 | O=C(COc1ccccc1C(=O)c1cnn(-c2ccccc2)c1)NCC1CCCCC1
59 | 1 to 25 | Cc1cc(C)c(C)c(S(=O)(=O)N2CCN(C(C)C(=O)NCc3ccc4c(c3)OCO4)CC2)c1C (centres unmarked)
60 | 25 to 50 | CC1CN(C(=O)CSc2nnc(Cc3cccc4ccccc34)n2C2CCCCC2)CC(C)O1 (centres unmarked)
61 | 25 to 50 | CCn1c(SCc2csc(-c3ccc(OC)c(OC)c3)n2)nc2ccccc21
62 | 1 to 25 | COc1ccc(S(=O)(=O)N2CCCCCC2)cc1C(=O)NCCc1ccccc1C
63 | 25 to 50 | COc1ccc(OCCCn2c(C(F)(F)F)c(Br)cnc2=O)cc1
64 | 25 to 50 | FC(F)(F)C1CCCN(Cc2ccccc2CN2CCCC(C(F)(F)F)C2)C1 (centres unmarked)
65 | 25 to 50 | CCSC1CCCCC1NCc1nc(-c2ccc(OC(F)F)c(OC)c2)no1 (centres unmarked)
66 | 1 to 25 | COc1cc(CN(C)C(=O)Cc2ccc(Br)cc2)ccc1OCc1ccccc1
67 | 25 to 50 | COc1ccc(-c2nc(CSc3nnc(CC(C)c4ccccc4)o3)cs2)cc1OC (centres unmarked)
68 | 1 to 25 | CC(C)n1cnnc1CNCc1ccc(OCc2ccccc2)cc1OCc1ccccc1
69 | 1 to 25 | CCOC(COCCNC(=O)c1ccsc1NC(=O)c1ccc(C(C)C)cc1)OCC
70 | 1 to 25 | CCn1c(SCCCc2nc3ccccc3o2)nc2ccsc2c1=O
71 | 25 to 50 | CN(Cc1nnc(-c2ccc(F)cc2)o1)CC12CC3CC(CC(C3)C1)C2
72 | 51 to 75 | O=C(COC1CCCC1)Nc1nnc(-c2ccccn2)[nH]1
73 | 25 to 50 | Cc1cc(C)c(S(=O)(=O)Nc2ccc(Oc3ccccc3C#N)nc2)c(C)c1

Row | inhibition at 20 µM [%] | SMILES
74 | 51 to 75 | CC(COc1ccc(Oc2ccccc2)cc1)Oc1ccc(C(F)(F)F)cn1 (centres unmarked)
75 | 25 to 50 | COc1ccc(C(=O)NC(C)Cc2ccc(-c3ccccc3)cc2)c(OC)c1OC (centres unmarked)
76 | 25 to 50 | CCOC(=O)c1c(-c2ccc(C)cc2)csc1NC(=O)CN(C)CC(=O)NC1CCC(O)CC1 (centres unmarked)
77 | 1 to 25 | O=C(C1CCN(c2ccccc2[N+](=O)[O-])CC1)N1CCCC1C1CCCCC1 (centres unmarked)
78 | 1 to 25 | C#CCN(Cc1ccc(C)cc1)c1ccc(C#N)cc1[N+](=O)[O-]
79 | 1 to 25 | COc1cccc(N2CCN(C(=O)c3ccccc3SCC(=O)N3CCc4ccccc43)CC2)c1
80 | 51 to 75 | CCOc1ccc(Oc2ccc(C(F)(F)F)cc2NCc2nc(C)no2)cc1
81 | 51 to 75 | O=C(CCOCc1ccccc1)Nc1nnc(-c2ccccn2)[nH]1
82 | 25 to 50 | CCCOc1nc2ccccc2nc1N1CCN(c2ccccc2F)CC1
83 | 25 to 50 | COC(=O)c1ccc(CCSc2nnc(COc3cccc(C)c3)o2)cc1
84 | 25 to 50 | CCC(C)Sc1ccc(NC(=O)c2ccccc2OCCOC)c(C(F)(F)F)c1 (centres unmarked)
85 | 1 to 25 | c1ccc(Cc2nc(CN(CCn3cccn3)Cc3csc(Cc4ccccc4)n3)cs2)cc1
86 | 51 to 75 | CCN(CCNC(=O)c1oc(-c2ccccc2)nc1C)c1ccccc1C
87 | 25 to 50 | CC(=O)c1cc(C(=O)Nc2cccc(COC3CCCCC3)c2)n(C)c1
88 | 25 to 50 | CC(C)=CC1C(C(=O)NCc2ccc(OCC(F)(F)F)nc2)C1(C)C (centres unmarked)
89 | 25 to 50 | COC(=O)c1cc(Cn2nc(C(=O)OC)c(Br)c2C2CC2)c(C)s1
